# Experimental data reported in patent publication US5830697A, “P-glycoprotein mutant resistant to cyclosporin modulation” (The Board of Trustees of the Leland Stanford Junior …, priority 1997, dated 1998).
# pIC50: −log10 of the molar value.
# Assays:
# [1] = test system: MES-SA/DxP5002 (DxP) cells; test: Growth inhibition (MTT) assay, with or without MDR modulators
# Protocol: Cells and Tissue Culture. […] Monolayer cultures of MES-SA cells and its variants were grown in McCoy's medium (Irvine Scientific, Santa Ana, Calif.) supplemented with 10% newborn calf serum (Gibco, Grand Island, N.Y.), 2 mM L-glutamine, and antibiotics(100 U/ml penicillin, 100 μg/ml streptomycin).
# Growth Inhibition Assay. Approximately 8000 cells per well were seeded in 96 well plates and incubated with or without drugs for 72 hr at 37° C. in an atmosphere of 5% CO2. Growth inhibition was evaluated by the MTT colorimetric assay in triplicate or quadruplicate as previously described. The absorbance was measured with a ThermoMax microplate reader (Molecular Devices, Menlo Park, Calif.). […] The doubling times of MES-SA, D×5, and D×P were determined as previously described.
# (§1) Reversal of MDR by Modulators. […] The modulation ratio was obtained by comparing IC50 s in the presence and absence of modulators.
# MES-SA/Dx5 (Dx5) cells = test: as above; format: cell-based, human
# Protocol: (§2) Cells and Tissue Culture. Details of the development and characterization of the human cell line MES-SA and its MDR variant MES-SA/Dx5 (D×5), which were derived from sarcoma elements of a uterine mixed Mullerian tumor, are described in Harker and Sikic (1985) Cancer Research 45:3810-3815. MES-SA/DxP5002 (DxP) cells were derived from Dx5.05 cells (D×5 cells selected and maintained at a DOX concentration of 0.5 μM) by step-wise selection in the presence of increasing DOX concentrations (from 40 nM up to 0.5 μM) and a constant PSC 833 concentration at 2 μM over a one-year period. Monolayer cultures of MES-SA cells and its variants were grown in McCoy's medium (Irvine Scientific, Santa Ana, Calif.) supplemented with 10% newborn calf serum (Gibco, Grand Island, N.Y.), 2 mM L-glutamine, and antibiotics(100 U/ml penicillin, 100 μg/ml streptomycin).
# (§3) Growth Inhibition Assay. Approximately 8000 cells per well were seeded in 96 well plates and incubated with or without drugs for 72 hr at 37° C. in an atmosphere of 5% CO2. Growth inhibition was evaluated by the MTT colorimetric assay in triplicate or quadruplicate as previously described. The absorbance was measured with a ThermoMax microplate reader (Molecular Devices, Menlo Park, Calif.). The IC50 (drug concentration resulting in 50% inhibition of MTT dye formation, compared to controls) was determined directly from semi-logarithmic dose-response curves. The doubling times of MES-SA, D×5, and D×P were determined as previously described.
# as §1
# MES-SA cells = test: as above; format: cell-based, human; details: MES-SA cells
# Protocol: as §2, §3, §1
# Dx/PDS cells = test: MTT assay, DxP subclone; format: cell-based, human
# Protocol: as §3, §1
# (§4) Clonal Analysis of D×P cells. Subcloning of cells was performed by limiting dilution. Both resistant and revertant clones were analyzed for the MDR phenotype, drug accumulation, and rt-PCR or heteroduplex as described above.
# Dx/PFS cells = test: MTT assay, DxP subclone; format: cell-based, human
# Protocol: as §3, §1, §4
# Dx/PAS cells = test: MTT assay, DxP subclone; format: cell-based, human
# Protocol: as §3, §1, §4
# Dx/PGS cells = test: MTT assay, DxP subclone; format: cell-based, human
# Protocol: as §3, §1, §4
# Dx/PBS cells = test: MTT assay, DxP subclone; format: cell-based, human
# Protocol: as §3, §1, §4
# Dx/PIS cells = test: MTT assay, DxP subclone; format: cell-based, human
# Protocol: as §3, §1, §4
# Dx/PJS cells = test: MTT assay, DxP subclone; format: cell-based, human
# Protocol: as §3, §1, §4
# Dx/PCS cells = test: MTT assay, DxP subclone; format: cell-based, human
# Protocol: as §3, §1, §4
# Dx/PHS cells = test: MTT assay, DxP subclone; format: cell-based, human
# Protocol: as §3, §1, §4
# Dx/PES cells = test: MTT assay, DxP subclone; format: cell-based, human
# Protocol: as §3, §1, §4
# Dx/PMS cells = test: MTT assay, DxP subclone; format: cell-based, human
# Protocol: as §3, §1, §4
smiles,measurement,setting,value
COc1cccc2c1C(=O)c1c(O)c3c(c(O)c1C2=O)C[C@@](O)(C(=O)CO)C[C@@H]3O[C@H]1C[C@H](N)[C@H](O)[C@H](C)O1 [Doxorubicin],Level of resistance of DxP cells to the cytotoxin compared with parental Dx5 (in words),[1]; DxP cells,similar
same,Fold resistance,"[1]; DxP cells, +2 μM PSC 833",53 fold
same,Fold resistance,"[1]; DxP cells, +3 μM cyclosporin A",30 fold
same,Fold resistance,"[1]; DxP cells, +6 μM Verapamil",18 fold
same,Fold resistance,"[1]; DxP cells, no modulator, relative to MES-SA",77 fold
same,"Dx5/DxP, fold of resistance difference in DxP cells compared with parental Dx5 cells",[1]; DxP vs Dx5,1 fold
same,Fold resistance,MES-SA/Dx5 (Dx5) cells; +2 μM PSC 833,1 fold
same,Fold resistance,MES-SA/Dx5 (Dx5) cells; +3 μM cyclosporin A,2 fold
same,Fold resistance,MES-SA/Dx5 (Dx5) cells; +6 μM Verapamil,4 fold
same,Fold resistance,"MES-SA/Dx5 (Dx5) cells; no modulator, relative to MES-SA",80 fold
same,pIC50,"MES-SA cells; Homo sapiens, 72 hr MTT, read-out: IC50 of drug-sensitive MES-SA cells (values in parenthesis)",7.40
same,Fold resistance,MES-SA cells; +2 μM PSC 833,1 fold
same,Fold resistance,MES-SA cells; +3 μM cyclosporin A,0.5 fold
same,Fold resistance,MES-SA cells; +6 μM Verapamil,0.5 fold
same,Fold resistance,"MES-SA cells; no modulator, 72 hr MTT",1 fold
same,fold resistance relative to MES-SA,Dx/PDS cells; + PSC,100 fold
same,fold resistance relative to MES-SA,Dx/PDS cells; no modulator,150 fold
same,fold resistance relative to MES-SA,Dx/PFS cells; + PSC,75 fold
same,fold resistance relative to MES-SA,Dx/PFS cells; no modulator,150 fold
same,fold resistance relative to MES-SA,Dx/PAS cells; + PSC,51 fold
same,fold resistance relative to MES-SA,Dx/PAS cells; no modulator,163 fold
same,fold resistance relative to MES-SA,Dx/PGS cells; + PSC,7 fold
same,fold resistance relative to MES-SA,Dx/PGS cells; no modulator,7 fold
same,fold resistance relative to MES-SA,Dx/PBS cells; + PSC,13 fold
same,fold resistance relative to MES-SA,Dx/PBS cells; no modulator,67 fold
same,fold resistance relative to MES-SA,Dx/PIS cells; + PSC,3 fold
same,fold resistance relative to MES-SA,Dx/PIS cells; no modulator,13 fold
same,fold resistance relative to MES-SA,Dx/PJS cells; + PSC,75 fold
same,fold resistance relative to MES-SA,Dx/PJS cells; no modulator,175 fold
same,fold resistance relative to MES-SA,Dx/PCS cells; + PSC,23 fold
same,fold resistance relative to MES-SA,Dx/PCS cells; no modulator,50 fold
same,fold resistance relative to MES-SA,Dx/PHS cells; + PSC,37 fold
same,fold resistance relative to MES-SA,Dx/PHS cells; no modulator,83 fold
same,fold resistance relative to MES-SA,Dx/PES cells; + PSC,100 fold
same,fold resistance relative to MES-SA,Dx/PES cells; no modulator,96 fold
same,fold resistance relative to MES-SA,Dx/PMS cells; + PSC,50 fold
same,fold resistance relative to MES-SA,Dx/PMS cells; no modulator,100 fold
